Source: PubChem BioAssay AID248 (DTP/NCI, 2004)
Several values for one entry are separate records, joined by “and”; a condition that tells them apart may be missing. Equal values may be shown once. Toxic doses and inconclusive results are not listed. Cut-off read from the data, not from the text of the source: active = T/C of 150% or more; inactive = T/C below 125%.

System: L1210 leukemia ip in BDF1 mice, survival T/C
Experiment: NCI In Vivo Anticancer Drug Screen. Data for tumor model L1210 Leukemia (intraperitoneal) in B6D2F1 (BDF1) mice
Details: endpoint: mean survival time, higher = longer survival
How it was run: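 Tumor was transplanted into mice, which were then dosed with test compound or vehicle alone. Survival was recorded for each group, and the treated figure was expressed relative to the control figure.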

[1] = dose: 100.0 mg/kg/injection, schedule: Q01DX001 (ip), vehicle: saline
[2] = dose: 200.0 mg/kg/injection, schedule: Q01DX001 (ip), vehicle: saline
[3] = dose: 400.0 mg/kg/injection, schedule: Q01DX001 (ip), vehicle: saline
[4] = dose: 12.5 mg/kg/injection, schedule: Q04DX003 (ip), vehicle: saline
[5] = dose: 12.5 mg/kg/injection, schedule: Q01DX009 (ip), vehicle: saline
[6] = dose: 25.0 mg/kg/injection, schedule: Q01DX009 (ip), vehicle: saline
[7] = dose: 100.0 mg/kg/injection, schedule: Q04DX003 (ip), vehicle: Klucel (hydroxypropylcellulose) (HPC)
[8] = dose: 200.0 mg/kg/injection, schedule: Q04DX003 (ip), vehicle: Klucel (hydroxypropylcellulose) (HPC)
[9] = dose: 400.0 mg/kg/injection, schedule: Q04DX003 (ip), vehicle: Klucel (hydroxypropylcellulose) (HPC)
[10] = dose: 50.0 mg/kg/injection, schedule: Q01DX001 (ip), vehicle: saline

Measured: T/C

C=C1CC(c2ccc(S(=O)(=O)N3CCOCC3)cc2)OC1=O (stereo unspecified)
inactive: dose: 1.56 mg/kg/injection, schedule: Q01DX009 (ip), vehicle: Klucel (hydroxypropylcellulose) (HPC) 94 % of control | dose: 3.12 mg/kg/injection, schedule: Q01DX009 (ip), vehicle: Klucel (hydroxypropylcellulose) (HPC) 106 % of control | dose: 6.25 mg/kg/injection, schedule: Q01DX009 (ip), vehicle: Klucel (hydroxypropylcellulose) (HPC) 106 % of control | dose: 12.5 mg/kg/injection, schedule: Q01DX009 (ip), vehicle: Klucel (hydroxypropylcellulose) (HPC) 105 % of control | dose: 25.0 mg/kg/injection, schedule: Q01DX009 (ip), vehicle: Klucel (hydroxypropylcellulose) (HPC) 93 % of control | dose: 100.0 mg/kg/injection, schedule: Q04DX002 (ip), vehicle: Klucel (hydroxypropylcellulose) (HPC) 95 % of control | dose: 200.0 mg/kg/injection, schedule: Q04DX002 (ip), vehicle: Klucel (hydroxypropylcellulose) (HPC) 113 % of control

NC(=O)CS
inactive: [1] 96 % of control | [2] 105 % of control

C=CP(c1ccccc1)c1ccccc1
inactive: dose: 100.0 mg/kg/injection, schedule: Q01DX009 (ip), vehicle: saline sonified 103 % of control | dose: 200.0 mg/kg/injection, schedule: Q01DX009 (ip), vehicle: saline sonified 110 % of control

CCS(=O)(=O)c1ccc(C)cc1
inactive: [1] 95 % of control | dose: 100.0 mg/kg/injection, schedule: Q01DX009 (ip), vehicle: saline 89 % of control | dose: 100.0 mg/kg/injection, schedule: Q04DX003 (ip), vehicle: saline 109 % of control | [2] 93 % of control | dose: 200.0 mg/kg/injection, schedule: Q01DX009 (ip), vehicle: saline 95 % of control | dose: 200.0 mg/kg/injection, schedule: Q04DX003 (ip), vehicle: saline 95 % of control | [3] 96 % of control | dose: 400.0 mg/kg/injection, schedule: Q01DX009 (ip), vehicle: saline 87 % of control | dose: 400.0 mg/kg/injection, schedule: Q04DX003 (ip), vehicle: saline 98 % of control

C[N+](C)(C)c1ccc(/C=N\O)cc1
inactive: dose: 6.25 mg/kg/injection, schedule: Q04DX003 (ip), vehicle: saline 95 % of control | [4] 102 % of control

CCCCOC1CC2c3ccccc3C1c1cccc[n+]12 (stereo unspecified)
inactive: [5] 111 % of control and 102 % of control | [4] 94 % of control and 101 % of control and 100 % of control | [6] 104 % of control and 98 % of control | dose: 25.0 mg/kg/injection, schedule: Q04DX003 (ip), vehicle: saline 100 % of control and 101 % of control | dose: 50.0 mg/kg/injection, schedule: Q04DX003 (ip), vehicle: saline 94 % of control and 88 % of control and 103 % of control

Nc1c(Cl)c(Cl)c2c(c1Cl)/C(=N/O)c1cc(Cl)ccc1-2
inactive: dose: 100.0 mg/kg/injection, schedule: Q01DX001 (ip), vehicle: carboxymethylcellulose (CMC) 95 % of control | dose: 200.0 mg/kg/injection, schedule: Q01DX001 (ip), vehicle: carboxymethylcellulose (CMC) 95 % of control | dose: 400.0 mg/kg/injection, schedule: Q01DX001 (ip), vehicle: carboxymethylcellulose (CMC) 103 % of control

CCSC1C(OC(C)=O)C(C(COC(C)=O)OC(C)=O)OC1n1cnc2c(Cl)nc(Cl)nc21 (stereo unspecified)
inactive: dose: 100.0 mg/kg/injection, schedule: Q01DX005 (ip), vehicle: saline 109 % of control | dose: 200.0 mg/kg/injection, schedule: Q01DX005 (ip), vehicle: saline 109 % of control

Cc1ccc(NC(=O)COc2ccc(Cl)cc2)cc1Cl
inactive: dose: 100.0 mg/kg/injection, schedule: Q01DX009 (ip), vehicle: Klucel (hydroxypropylcellulose) (HPC) 94 % of control | [7] 93 % of control | dose: 200.0 mg/kg/injection, schedule: Q01DX009 (ip), vehicle: Klucel (hydroxypropylcellulose) (HPC) 86 % of control | [8] 90 % of control | dose: 400.0 mg/kg/injection, schedule: Q01DX009 (ip), vehicle: Klucel (hydroxypropylcellulose) (HPC) 93 % of control | [9] 101 % of control

CC(=O)OCC(COC(C)=O)OC(C)=O
inactive: dose: 100.0 mg/kg/injection, schedule: Q04DX002 (ip), vehicle: other 98 % of control | dose: 200.0 mg/kg/injection, schedule: Q04DX002 (ip), vehicle: other 98 % of control | dose: 400.0 mg/kg/injection, schedule: Q04DX002 (ip), vehicle: other 103 % of control

C[N+](C)(C)C.Cl[Br-]Br
inactive: dose: 6.25 mg/kg/injection, schedule: Q01DX009 (ip), vehicle: alcohol 95 % of control | dose: 12.5 mg/kg/injection, schedule: Q01DX009 (ip), vehicle: alcohol 89 % of control

Cc1cc(C)c(CCN(C)C)c(C)c1
inactive: [10] 101 % of control | [1] 97 % of control | [2] 91 % of control

CS(=O)(=O)N(CC(=O)O)Cc1cccc(Br)c1
inactive: dose: 50.0 mg/kg/injection, schedule: Q01DX005 (ip), vehicle: other 107 % of control | dose: 100.0 mg/kg/injection, schedule: Q01DX005 (ip), vehicle: other 120 % of control | dose: 200.0 mg/kg/injection, schedule: Q01DX005 (ip), vehicle: other 100 % of control

CCC(/C=C1\Sc2ccc(C)cc2N1CC)=C\c1sc2ccc(OC)cc2[n+]1CC
inactive: dose: 2.0 mg/kg/injection, schedule: Q01DX001 (ip), vehicle: other 106 % of control | dose: 4.0 mg/kg/injection, schedule: Q01DX001 (ip), vehicle: other 105 % of control

Cc1ccc(S(=O)(=O)OC2CN3CCC2CC3)cc1 (stereo unspecified)
inactive: [5] 95 % of control | [6] 100 % of control | dose: 50.0 mg/kg/injection, schedule: Q01DX009 (ip), vehicle: saline 101 % of control and 102 % of control

CN1c2cccc[c]2[Sn]([c]2ccccc2)([c]2ccccc2)[c]2ccccc21
inactive: dose: 100.0 mg/kg/injection, schedule: Q01DX001 (ip), vehicle: steriod suspending solution 94 % of control | dose: 200.0 mg/kg/injection, schedule: Q01DX001 (ip), vehicle: steriod suspending solution 94 % of control | dose: 400.0 mg/kg/injection, schedule: Q01DX001 (ip), vehicle: steriod suspending solution 100 % of control

CN1CCOC1=Nc1ccc(Cl)cc1
inactive: dose: 100.0 mg/kg/injection, schedule: Q04DX003 (ip), vehicle: saline with Tween-80 94 % of control | dose: 200.0 mg/kg/injection, schedule: Q04DX003 (ip), vehicle: saline with Tween-80 99 % of control | dose: 400.0 mg/kg/injection, schedule: Q04DX003 (ip), vehicle: saline with Tween-80 88 % of control

COc1cccc(-c2ccc(N=N/C(=N/Nc3ccccc3)c3ccccc3)c(OC)c2)c1
inactive: [10] 101 % of control | [1] 95 % of control | [2] 97 % of control | [3] 89 % of control

CC(CCc1ccc(O)cc1)OC=O (stereo unspecified)
inactive: dose: 222.0 mg/kg/injection, schedule: Q01DX Z (ip), vehicle: saline 104 % of control | dose: 333.0 mg/kg/injection, schedule: Q01DX Z (ip), vehicle: saline 91 % of control

O=C(OC(=Nc1ccc([N+](=O)[O-])cc1)c1cc(N2CCCC2)ccn1)c1ccc(-c2ccccc2)cc1
inactive: [1] 98 % of control | [2] 97 % of control | [3] 92 % of control

O=CNNCc1c[nH]c(=O)[nH]c1=O
inactive: [10] 96 % of control | [1] 96 % of control | [2] 96 % of control | [3] 98 % of control

Cc1ccc(S(=O)(=O)NNc2c3ccccc3nc3ccc(Cl)cc23)cc1
inactive: dose: 100.0 mg/kg/injection, schedule: Q04DX002 (ip), vehicle: saline with Tween-80 101 % of control | dose: 200.0 mg/kg/injection, schedule: Q04DX002 (ip), vehicle: saline with Tween-80 97 % of control | dose: 400.0 mg/kg/injection, schedule: Q04DX002 (ip), vehicle: saline with Tween-80 97 % of control

Cc1n(CCBr)c([N+](=O)[O-])c[n+]1C1N=C(c2ccccc2)c2cc(Cl)ccc2NC1=O (stereo unspecified)
inactive: [7] 101 % of control | [8] 94 % of control

CC1(O)CCCCCCC1
inactive: [10] 102 % of control | [1] 93 % of control | [2] 91 % of control

COC1OC(C)C(NC(C)=O)C(OCc2ccccc2)C1OCc1ccccc1 (stereo unspecified)
inactive: [7] 95 % of control | [8] 95 % of control | [9] 97 % of control

COc1ccc2c(c1)CCC1=C(C)C(=O)CCC12C (stereo unspecified)
inactive: dose: 100.0 mg/kg/injection, schedule: Q01DX001 (ip), vehicle: Klucel (hydroxypropylcellulose) (HPC) 102 % of control | dose: 200.0 mg/kg/injection, schedule: Q01DX001 (ip), vehicle: Klucel (hydroxypropylcellulose) (HPC) 98 % of control | dose: 400.0 mg/kg/injection, schedule: Q01DX001 (ip), vehicle: Klucel (hydroxypropylcellulose) (HPC) 98 % of control

Oc1cc2c3c(c1)-c1c(ccc(O)c1O)CC3NCC2 (stereo unspecified)
inactive: dose: 6.25 mg/kg/injection, schedule: Q04DX003 (ip), vehicle: DMSO 100 % of control | dose: 12.5 mg/kg/injection, schedule: Q04DX003 (ip), vehicle: DMSO 100 % of control | dose: 25.0 mg/kg/injection, schedule: Q04DX003 (ip), vehicle: DMSO 93 % of control | dose: 50.0 mg/kg/injection, schedule: Q04DX003 (ip), vehicle: DMSO 88 % of control
